Measurements: patent US20260174875A1 (Novo Nordisk A/S, priority 2023, published 2026)
pEC50: −log10 of the molar value. Like-named read-outs stand apart in the source and are kept apart here. Marks after values point to notes of the source that are not given here. Numbered stars: 1 amine (or outer) side, 2 acyl side, 3 side chain; on linkers, the order of the positions; unused ones are H or OH. Square brackets hold non-standard residues; d marks the D form. Side chains are listed from the residue outwards. * marks the point of attachment. C20 diacid = O=C(O)CCCCCCCCCCCCCCCCCCC(=O)*; C18 diacid = O=C(O)CCCCCCCCCCCCCCCCC(=O)*; C16 diacid = O=C(O)CCCCCCCCCCCCCCC(=O)*; γGlu = O=C(O)[C@H](CCC(=O)[*:2])N[*:1]; AEEA = NCCOCCOCC(=O)O; Aib = CC(C)(N)C(=O)O

How the values were obtained:
[1] = molecular target: T1, human GLP-1 receptor (hGLP-1R) (Homo sapiens, UniProt P43220); experiment: GLP-1 receptor assay, method A (CRE-luciferase reporter, BHK cells); type: cell-based
T1 construct: expressed in transfected cells
Summary of the method: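 In this CRE-luciferase reporter assay, the human receptor was expressed in BHK cells, and cAMP signalling was followed after a 3 h stimulation at 37° C. The buffer contained 1% (w/v) ovalbumin, and testing was done with and without 1% (w/v) human serum albumin.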

[2] = test system: Male Sprague Dawley (SD) rats; experiment: Efficacy testing on appetite: acute food intake in ad libitum fed normal weight rats; type: in vivo, rat; details: for Food intake (relative to vehicle) Day 1: day 1 [0-24 hours]; for Food intake (relative to vehicle) Day 2: day 2 [24-48 hours]; for Food intake (relative to vehicle) Day 3: day 3 [48-72 hours]
From the text: Male Sprague Dawley (SD) rats from Taconic, Denmark were used for the acute food intake experiments, wherein the principles of laboratory animal care were followed.
The rats arrived at least 10-14 days before the start of the experiment to allow acclimatization to experimental settings. During this period, the animals were handled (fixation by restrain in neck skin) at least 2 times. Immediately upon arrival, rats were changed to a reversed light cycle (dark from 11 am-11 pm) and were transferred to an automated food intake measuring system (HM2 system, MBRose; Faaborg, Denmark). […] To enable recording of individual food intake, rats were ID chipped. Three rats were housed in each cage. During the acclimatization period, in which the rats get used to the new light cycle and diet (LF 10% (D12450B), from Research Diets Inc.), the animals had free access to food and water. Since rats are normally active and consume most of their daily calories during the dark period, rats were dosed in the morning right before lights were turned off. Such a set-up results in the lowest data variation and highest test sensitivity. […] In each cage there were animals from three different treatment groups (to eliminate potential cage effects (e.g. cage malfunction) on primary readout: food intake). The rats were dosed once subcutaneously (s.c.) with the peptide of interest according to body weight (10 or 30 nmol/kg) in vehicle (0.5 ml/kg) using a NovoPen® (Novo Nordisk, Bagsvæed, Denmark).
The compounds of the invention were formulated (20 or 60 nmol/ml) in the following vehicle: 8 mM phosphate; 250 mM glycerol; 0.007% polysorbate 20, pH 7.4.
After dosing, the rats were returned to their home cages, where they continued to have ad libitum access to chow and water. The food consumption was recorded individually and continuously by the HM2 system from 0-72 h after test compound administration. Data obtained by the HM-2 system were stored in a HMBase SQL database (Firebird® relational database management system) and were processed by HM2Lab software (MBRose; Faaborg, Denmark) installed in an embedded computer. The feeding system is a highly sensitive system with a load resolution of 0.001 g.

[3] = hGLP-1R Potency, 1% HSA, EC50, method A, in the presence of 1% HSA
[4] = method A, absence of HSA, read-out: hGLP-1R Potency, no HSA, EC50

T1 sequence (P43220 24-463): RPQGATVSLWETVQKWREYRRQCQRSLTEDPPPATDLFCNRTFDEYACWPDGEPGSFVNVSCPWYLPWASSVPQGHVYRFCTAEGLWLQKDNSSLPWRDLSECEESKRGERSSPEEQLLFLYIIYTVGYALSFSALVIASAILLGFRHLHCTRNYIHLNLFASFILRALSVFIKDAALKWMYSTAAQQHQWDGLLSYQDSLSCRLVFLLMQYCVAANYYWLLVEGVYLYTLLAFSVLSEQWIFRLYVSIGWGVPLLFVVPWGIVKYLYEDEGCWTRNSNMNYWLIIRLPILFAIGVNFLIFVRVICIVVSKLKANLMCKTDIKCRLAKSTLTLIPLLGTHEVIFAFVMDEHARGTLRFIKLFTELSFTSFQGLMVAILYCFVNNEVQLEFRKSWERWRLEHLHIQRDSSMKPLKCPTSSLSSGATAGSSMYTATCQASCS

Substance	pEC50 [1, 3]	pEC50 [1, 4]	potency ratio (A/B): highest EC50 divided by lowest EC50 over hGLP-1R, hGIPR, hAMYR3 ([1]; absence of HSA, <50 = balanced tri-agonist)	Food intake (relative to vehicle) Day 1 ([2]; single dose 10 nmol/kg)	Food intake (relative to vehicle) Day 2 ([2]; single dose 10 nmol/kg)	Food intake (relative to vehicle) Day 3 ([2]; single dose 10 nmol/kg)	Food intake (relative to vehicle) Day 1 ([2]; single dose 30 nmol/kg)	Food intake (relative to vehicle) Day 2 ([2]; single dose 30 nmol/kg)	Food intake (relative to vehicle) Day 3 ([2]; single dose 30 nmol/kg)	pEC50 ([1]; hGLP-1R Potency, no HSA, EC50, method A, absence of HSA)
Y[Aib]EGTFTSDYSILLEEQAAREFIEWLLAGGPSSGEASHLSTAQTQRLSAELHRLK([AEEA-AEEA-γGlu-C18 diacid])TLPRTETGSGSP-NH2 [Compound 80]	9.95	10.61		−84%	−78%	−23%				
Y[Aib]EGTFTSDYSILLEEQAAREFIEWLLAGGPSK([AEEA-AEEA-γGlu-C18 diacid])GEASHLSTAQTARLSAELHELATLPRTETGSGSP-NH2 [Compound 35]		10.63					−42%	−18%	−16%	
Y[Aib]EGTFTSDYSILLEEQAAREFIEWLLAGGPSSGAGQAPGQAPGASHLSTAQTQRLSAELHK([AEEA-AEEA-γGlu-C20 diacid])LATLPRTETGSGSP-NH2 [Compound 115]				−44.5%	−76.5%	−38%				
H[Aib]HGTFTSDYSILLEEQAAREFIEWLLAGGPSK([AEEA-AEEA-γGlu-C18 diacid])GEASHLSTAQTARLSAELHELATLPRTETGSGSP-NH2 [Compound 36]	9.68	11.50		−44%	−45%	−3%				
H[Aib]HGTFTSDYSILLEEQAAREFIEWLLAGGPSK([AEEA-AEEA-γGlu-C16 diacid])GEASQLSTAALGRLSAELHRLADLPRTETGSGSP-NH2 [Compound 62]	10.94			−74%	−42%	−13%				11.38
Y[Aib]EGTFTSDYSILLEEQAAREFIEWLLAGGPSK([AEEA-AEEA-γGlu-C16 diacid])GAPPPSGGGEASELSTAALGRLSAELHELATLPRTETGSGSP-NH2 [compound 10]	9.61	10.86	7	−20* %	−4%	−4%				
Y[Aib]EGTFTSDYSILLEEQAAREFIEWLLAGGPSK([AEEA-AEEA-γGlu-C18 diacid])GGQAPGQAPGEASHLSTAQTQRLSAELHELATLPRTETGSGSP-NH2 [Compound 38]	8.63	10.92		−3%	−19%	1%				
Y[Aib]EGTFTSDYSILLEEQAAREFIEWLLAGGPSK([AEEA-AEEA-γGlu-C18 diacid])GEASELSTAALGRLSAELHELATLPRTETGSGSP-NH2 [Compound 26]	8.78	10.68					−11%	−18%	0%	
Y[Aib]EGTFTSDYSILLEEQAAREFIEWLLAGGPSSGAGQAPGASHLSTAQTQRLSAELHK([AEEA-AEEA-γGlu-C18 diacid])LATLPRTETGSGSP-NH2 [Compound 97]	9.96	10.79		−65%	−82%	−42%				
H[Aib]HGTFTSDYSILLEEQAAREFIEWLLAGGPSK([AEEA-AEEA-γGlu-C18 diacid])GAPPPSGGGEASHLSTAQTARLSAELHQLATLPRTETGSGSP-NH2 [compound 101]	9.75	11.49								

Further lines, with some results ahead:

pEC50 [1, 3]	pEC50 [1, 4]	potency ratio (A/B): highest EC50 divided by lowest EC50 over hGLP-1R, hGIPR, hAMYR3 ([1]; absence of HSA, <50 = balanced tri-agonist)	Substance	Food intake (relative to vehicle) Day 1 ([2]; single dose 10 nmol/kg)	Food intake (relative to vehicle) Day 2 ([2]; single dose 10 nmol/kg)	Food intake (relative to vehicle) Day 3 ([2]; single dose 10 nmol/kg)	Food intake (relative to vehicle) Day 1 ([2]; single dose 30 nmol/kg)	Food intake (relative to vehicle) Day 2 ([2]; single dose 30 nmol/kg)	Food intake (relative to vehicle) Day 3 ([2]; single dose 30 nmol/kg)	pEC50 ([1]; hGLP-1R Potency, no HSA, EC50, method A, absence of HSA)
10.00	11.32		H[Aib]HGTFTSDYSILLEEQAAREFIEWLLAGGPSK([AEEA-AEEA-γGlu-C18 diacid])GEASQLSTAALGRLSAELHTLATLPRTETGSGSP-NH2 [Compound 63]	−79%	−80%	−17%				
10.57	10.96		Y[Aib]EGTFTSDYSILLEEQAAREFIEWLLAGGPSSGAGQAPGQAPGASHLSTAQTQRLSAELHK([AEEA-AEEA-γGlu-C18 diacid])LATLPRTETGSGSP-NH2 [compound 52]							
10.41	11.07		H[Aib]HGTFTSDYSILLEEQAAREFIEWLLAGGPSSGEASHLSTAALGRLSAK([AEEA-AEEA-γGlu-C18 diacid])LHRLATLPRTETGSGSP-NH2 [Compound 87]	−91%	−86%	−24%				
10.12	11.69		H[Aib]HGTFTSDYSILLEEQAAREFIEWLLAGGPSK([AEEA-AEEA-γGlu-C18 diacid])GAPPPSGGGGASELSTAALGRLSAELHRLATLPRTETGSGSP-NH2 [Compound 14]	−78%	−85%	−32%				
10.88	11.57		H[Aib]HGTFTSDYSILLEEQAAREFIEWLLAGGPSK([AEEA-AEEA-γGlu-C16 diacid])GEASELSTAALGRLSAELHRLATLPRTETGSGSP-NH2 [Compound 17]	−84%	−78%	−11%				
10.62	11.46		H[Aib]HGTFTSDYSILLEEQAAREFIEWLLAGGPSSGEASHLSTAQTQRLSAK([AEEA-AEEA-γGlu-C18 diacid])LHRLATLPRTETGSGSP-NH2 [Compound 82]	−94%	−73%	−27%				
10.53	11.41		H[Aib]HGTFTSDYSILLEEQAAREFIEWLLAGGPSSGEASHLSTAALGRLSAELHRLK([AEEA-AEEA-γGlu-C18 diacid])TLPRTETGSGSP-NH2 [Compound 89]	−93%	−78%	−28%				
10.17	11.43		H[Aib]HGTFTSDYSILLEEQAAREFIEWLLAGGPSK([AEEA-AEEA-γGlu-C18 diacid])GEASQLSTAALGRLSAELHQLATLPRTETGSGSP-NH2 [Compound 64]							
10.53	10.89		Y[Aib]EGTFTSDYSILLEEQAAREFIEWLLAGGPSSGAGQAPGQAPGASHLSTAQTQRLSAELHRLATLPK([AEEA-AEEA-γGlu-C18 diacid])TETGSGSP-NH2 [Compound 57]	−75%	−88%	−14%				
10.99			H[Aib]HGTFTSDYSILLEEQAAREFIEWLLAGGPSK([AEEA-AEEA-γGlu-C16 diacid])GAPPPSGGGEASELSTAALGRLSAELHELATLPRTETGSGSP-NH2 [Compound 12]	−70%	−39%	−8%				
10.59	10.90		Y[Aib]EGTFTSDYSILLEEQAAREFIEWLLAGGPSSGAGQAPGQAPLASHLSTAQTQRLSAELHK([AEEA-AEEA-γGlu-C18 diacid])LATLPRTETGSGSP-NH2 [compound 58]							
10.29	10.92		Y[Aib]EGTFTSDYSILLEEQAAREFIEWLLAGGPSRGEASHLSTAQTQRLSAELHK([AEEA-AEEA-γGlu-C18 diacid])LATLPRTETGSGSP-NH2 [compound 68]							
10.76	11.42		H[Aib]HGTFTSDYSILLEEQAAREFIEWLLAGGPSSGAGQAPGQAPGASHLSTAQTQRLSAELHRLK([AEEA-AEEA-γGlu-C18 diacid])TLPRTETGSGSP-NH2 [Compound 91]	−96%	−84%	−33%				
10.34	10.64		Y[Aib]EGTFTSDYSILLEEQAAREFIEWLLAGGPSSGAGQAPGQAPGASHLSTAQTQRLSAK([AEEA-AEEA-γGlu-C18 diacid])LHRLATLPRTETGSGSP-NH2 [compound 55]							
